Experimental data reported in EP0795549A1, “Bis-aryloxy(amino)-triazinyl-oxy(amino)aryl derivatives, their preparation and their use as antiviral agents” (American Cyanamid Company, priority 1996, dated 1997).
Like-named read-outs stand apart in the source and are kept apart here.

What was measured:
RSV [1] = assay: viral plaque reduction assay, RSV; type: cell-based, Respiratory Syncitial Virus; conditions: for IC50µG/mL IN PLAQUE ASSAY RSV/ VERO: RSV (A2), vero host cells
CMV (Ad169) [2] = assay: viral plaque reduction assay, CMV; type: cell-based, Cytomegalovirus; conditions: for IC50µG/mL IN PLAQUE ASSAY CMV/ HF: CMV (Ad169), HF host cells; for IC50 (µG/ml) viral plaque formation: HCMV Ad169, HF, Pre
RSV A2 = type: in vivo, cotton rats; conditions: for inhibition of RSV in vivo (summary in words): cotton rats, summary of Table 3
HSV1 (Patton) [3] = assay: viral plaque reduction assay, HSV1; type: cell-based, Herpes Simplex Virus; conditions: for IC50µG/mL IN PLAQUE ASSAY HSV/ VER O: HSV1 (Patton), vero host cells
HSV2 = assay: viral plaque reduction assay, HSV2; type: cell-based, herpes simplex virus; conditions: Pre
FLU = assay: viral plaque reduction assay, influenza; type: cell-based; conditions: Pre
RSV [4] = assay: time of addition: effect on viral protein synthesis in infected Vero cells; type: cell-based
Procedure: The time in the virus life-cycle when Example 1 exerts its effect was determined to increase understanding of the mechanism of action. This was accomplished by adding and removing the compound at various times relative to infection and assessing the effect on viral protein synthesis. Vero cells were infected on ice for 1 hour, unadsorbed virus was removed, and then the infected cells were incubated at 37°C for 18 hours (virus adsorption will occur on ice, but fusion will not proceed until the temperature is raised to 18°C or above). After the 18 hour incubation at 37°C (when the bulk of ongoing protein synthesis was directed by viral RNAs), ^35S-methionine was added for 2 hours, the cells were lysed, and the labeled proteins were analyzed on SDS-PAGE gels. The viral N, P, and M proteins were then evident. […] However, when the compound of Example 1 was added even after only 5 minutes incubation at 37°C, viral protein production was unimpeded. Therefore, the process inhibited was the fusion process or some closely succeeding step which is required for later viral gene expression.

RSV (A2) = assay: viral yield reduction (growth inhibition) assay, RSV; type: cell-based, Respiratory Syncitial Virus; conditions: for IC50 µG/mL IN GROWTH […]/ HF: HF host cells; for IC50 µG/mL IN GROWTH […]/ VERO: vero host cells
Procedure: (§1) The compounds were tested for biological activity using viral yield reduction assays. Host cells (indicated as HF for human foreskin fibroblasts and as vero, the commonly used African green monkey cell line, in Tables 1 and 1a) were plated at 4 x 10^4 cells/well in cell growth medium with 2% fetal bovine serum or 2% calf serum in 96-well plates (0.1 ml/well) and incubated overnight. The compounds were added to individual wells to give final concentrations ranging from 50 to 0.1 µg/ml in two-fold concentration steps. After 1 hour, virus was added, and the incubation was continued for 4 days with RSV or CMV and for 2 days with HSV. At the end of the experiment, the amount of virus growth was quantitated and the yield reduction at various concentrations of compound was calculated. This allows estimation of the concentration of compound giving 50% reduction in virus growth (IC50).

HPIV3 = assay: viral plaque reduction assay, HPIV3; type: cell-based, human parainfluenza virus type 3, strain Washington; conditions: HPIV3 WASH., VERO, Pre
HSV1 (Patton) [5] = assay: viral yield reduction (growth inhibition) assay, HSV; type: cell-based, Herpes Simplex Virus; conditions: HSV1 (Patton)
Procedure: as §1

CMV (Ad169) [6] = assay: viral yield reduction (growth inhibition) assay, CMV; type: cell-based, Cytomegalovirus; conditions: HF host cells
Procedure: as §1

[7] = RSV A2, VERO, Pre (pretreatment)
[8] = EXPT 3, i.n. 30 mg/k d1,2,3, Lavage/CPE
[9] = EXPT 3, i.n. 30 mg/k d1,2,3, Lavage/Plaque
[10] = EXPT 3, i.n. 30 mg/k d1,2,3, Lung/Plaque
[11] = EXPT 3, i.n. d0 15 mg/k, d1 30 mg/k, Lavage/CPE
[12] = EXPT 3, i.n. d0 15 mg/k, d1 30 mg/k, Lavage/Plaque
[13] = EXPT 3, i.n. d0 15 mg/k, d1 30 mg/k, Lung/Plaque
[14] = EXPT 3, i.n. d0 15 mg/k, d1,2,3 30 mg/k, Lavage/CPE
[15] = EXPT 3, i.n. d0 15 mg/k, d1,2,3 30 mg/k, Lavage/Plaque
[16] = EXPT 3, i.n. d0 15 mg/k, d1,2,3 30 mg/k, Lung/Plaque
[17] = EXPT 3, i.p. 30 mg/k d1,2,3, Lavage/CPE
[18] = EXPT 3, i.p. 30 mg/k d1,2,3, Lavage/Plaque
[19] = EXPT 3, i.p. 30 mg/k d1,2,3, Lung/Plaque

“4,4'-Bis[4,6-di[3-aminophenyl-N,N-bis(2-carbamoyl-ethyl)sulfonylimino]-1,3,5-triazin-2-ylamino]-stilbene-2,2'-disulfonic acid, disodium salt [Example 1]” was tested, and the “IC50 (µG/ml) viral plaque formation” value (RSV [1]; RSV 2B, VERO, Pre) was 0.1 µg/mL, the “IC50 (µG/ml) viral plaque formation” value (RSV [1]; RSV 3A, VERO, Pre) was 0.5 µg/mL and the “IC50 (µG/ml) viral plaque formation” value (RSV [1]; RSV 9320, VERO, Pre) was 0.2 µg/mL. The “IC50µG/mL IN PLAQUE ASSAY RSV/ VERO” value (RSV [1]) was 0.3 µg/mL, the “IC50 (µG/ml) viral plaque formation” value (RSV [1]; RSV A2, HF, Post 2 hours) was <3 µg/mL and the “IC50 (µG/ml) viral plaque formation” value (RSV [1]; RSV A2, HF, Pre) was 0.4 µg/mL. The “IC50 (µG/ml) viral plaque formation” value (RSV [1]; RSV A2, MDBK, Pre) was 0.4 µg/mL, the “IC50 (µG/ml) viral plaque formation” value (RSV [1]; RSV A2, SKNSH, Pre) was 0.4 µg/mL and the “IC50 (µG/ml) viral plaque formation” value (RSV [1]; RSV A2, VERO, Post 2 hours) was 0.3 µg/mL. For the same substance, the “IC50 (µG/ml) viral plaque formation” value (RSV [1]; RSV A2, VERO, Post 24 hours) was 0.4 µg/mL, the “IC50 (µG/ml) viral plaque formation” value (RSV [1]; [7]) was 0.3 µg/mL and the “IC50 (µG/ml) viral plaque formation” value (RSV [1]; RSV LONG, VERO, Pre) was 0.2 µg/mL. The “active against all RSV strains tested (plaque assays)” value (RSV [1]) was 0.1 to 0.7 µg/mL, the “IC50µG/mL IN PLAQUE ASSAY CMV/ HF” value (CMV (Ad169) [2]) was 7 µg/mL and the “IC50 (µG/ml) viral plaque formation” value (CMV (Ad169) [2]) was 15 µg/mL. The “inhibition of RSV in vivo (summary in words)” value (RSV A2) was “inhibit RSV in vivo”, the “IC50µG/mL IN PLAQUE ASSAY HSV/ VER O” value (HSV1 (Patton) [3]) was 8 µg/mL and the “IC50 (µG/ml) viral plaque formation” value (HSV2; HSV2 12, VERO) was >10 µg/mL. For the same substance, the “IC50 (µG/ml) viral plaque formation” value (HSV2; HSV2 333, VERO) was 3 µg/mL, the “IC50 (µG/ml) viral plaque formation” value (HSV2; HSV2 MS, VERO) was 5 µg/mL and the “IC50 (µG/ml) viral plaque formation” value (FLU; FLU A1/FM/1/47, MDCK) was >50 µg/mL. For the same substance, the “IC50 (µG/ml) viral plaque formation” value (FLU; FLU A2/HK/8/68, MDCK) was >50 µg/mL, the “IC50 (µG/ml) viral plaque formation” value (FLU; FLU A2/JPN/305/57, MDCK) was >50 µg/mL and the “IC50 (µG/ml) viral plaque formation” value (FLU; FLU A/Beij/32/92, MDCK) was >20 µg/mL. For the same substance, the “IC50 (µG/ml) viral plaque formation” value (FLU; FLU A/Texas/36/91, MDCK) was 5 µg/mL, the “IC50 (µG/ml) viral plaque formation” value (FLU; FLU B/Pana/45/90, MDCK) was >20 µg/mL and the viral protein synthesis (RSV [4]; 10 µg/ml added immediately after virus adsorption and before raising the incubation temperature to 37°C) was “fully prevented”. The viral protein production (RSV [4]; added after only 5 minutes incubation at 37°C) was “unimpeded”, the “IC50 µG/mL IN GROWTH […]/ HF” value (RSV (A2)) was 0.3 µg/mL and the “IC50 µG/mL IN GROWTH […]/ VERO” value (RSV (A2)) was 0.5 µg/mL. For the same substance, the “IC50 (µG/ml) viral plaque formation” value (HPIV3) was 20 µg/mL.
In the case of “4,4'-Bis[4,6-di[3-aminophenyl-N,N-bis(2-carbamoyl-ethyl)sulfonylimino]-1,3,5-triazin-2-ylamino]-biphenyl-2,2'-disulfonic acid, disodium salt [Example 4]”, the “IC50 (µG/ml) viral plaque formation” value (RSV [1]; RSV 2B, VERO, Post 2 hours) is reported as 0.08 µg/mL, the “IC50 (µG/ml) viral plaque formation” value (RSV [1]; RSV 3A, VERO, Post 2 hours) is reported as 0.15 µg/mL and the “IC50 (µG/ml) viral plaque formation” value (RSV [1]; RSV 9320, VERO, Post 2 hours) is reported as 0.18 µg/mL. The “IC50 (µG/ml) viral plaque formation” value (RSV [1]; RSV 18736, VERO, Post 2 hours) was 0.06 µg/mL, the “IC50µG/mL IN PLAQUE ASSAY RSV/ VERO” value (RSV [1]) was 0.1 µg/mL and the “IC50 (µG/ml) viral plaque formation” value (RSV [1]; RSV A2, VERO, Post 2 hours) was 0.28 µg/mL. The “IC50 (µG/ml) viral plaque formation” value (RSV [1]; [7]) was 0.1 µg/mL, the “IC50 (µG/ml) viral plaque formation” value (RSV [1]; RSV LONG, VERO, Post 2 hours) was 0.21 µg/mL and the “IC50 (µG/ml) viral plaque formation” value (RSV [1]; RSV RSS2, VERO, Post 2 hours) was 0.20 µg/mL. The “active against all RSV strains tested (plaque assays)” value (RSV [1]) was 0.1 to 0.7 µg/mL, the “IC50 µG/mL IN GROWTH […]/ HF” value (HSV1 (Patton) [5]; HF host cells) was 20 µg/mL and the “IC50 µG/mL IN GROWTH […]/ VERO” value (HSV1 (Patton) [5]; vero host cells) was 35 µg/mL. For the same substance, the “IC50 µG/mL IN GROWTH […]/ HF” value (CMV (Ad169) [6]) was 35 µg/mL, the “IC50µG/mL IN PLAQUE ASSAY CMV/ HF” value (CMV (Ad169) [2]) was > 30 µg/mL and the “IC50 (µG/ml) viral plaque formation” value (CMV (Ad169) [2]) was >30 µg/mL. The “Fold red. log10” value (RSV A2; [8]) was 2.51 log10, the “Mean titer log10/g lung” value (RSV A2; [8]) was 1.67 log10/g lung and the “Fold red. log10” value (RSV A2; [9]) was 1.2 log10. The “Mean titer log10/g lung” value (RSV A2; [9]) was 3.09 log10/g lung, the “Fold red. log10” value (RSV A2; [10]) was 1.18 log10 and the “Mean titer log10/g lung” value (RSV A2; [10]) was 3.37 log10/g lung. For the same substance, the “Fold red. log10” value (RSV A2; [11]) was 2.52 log10, the “Mean titer log10/g lung” value (RSV A2; [11]) was 1.66 log10/g lung and the “Fold red. log10” value (RSV A2; [12]) was 2.03 log10. For the same substance, the “Mean titer log10/g lung” value (RSV A2; [12]) was 2.26 log10/g lung, the “Fold red. log10” value (RSV A2; [13]) was 2.23 log10 and the “Mean titer log10/g lung” value (RSV A2; [13]) was 2.32 log10/g lung. The “Fold red. log10” value (RSV A2; [14]) was 2.13 log10, the “Mean titer log10/g lung” value (RSV A2; [14]) was 2.05 log10/g lung and the “Fold red. log10” value (RSV A2; [15]) was 2.04 log10. For the same substance, the “Mean titer log10/g lung” value (RSV A2; [15]) was 2.25 log10/g lung, the “Fold red. log10” value (RSV A2; [16]) was 2.3 log10 and the “Mean titer log10/g lung” value (RSV A2; [16]) was 2.25 log10/g lung. The “Fold red. log10” value (RSV A2; [17]) was 0 log10, the “Mean titer log10/g lung” value (RSV A2; [17]) was 4.18 log10/g lung and the “Fold red. log10” value (RSV A2; [18]) was 0.09 log10. The “Mean titer log10/g lung” value (RSV A2; [18]) was 4.1 log10/g lung, the “Fold red. log10” value (RSV A2; [19]) was 0.26 log10 and the “Mean titer log10/g lung” value (RSV A2; [19]) was 3.92 log10/g lung. For the same substance, the “inhibition of RSV in vivo (summary in words)” value (RSV A2) was “inhibit RSV in vivo”, the “Fold red. log10” value (RSV A2; rat, in vivo) was 1.63 log10 and the “Mean titer log10/g lung” value (RSV A2; rat, in vivo) was 2.05 log10/g lung. For the same substance, the “IC50µG/mL IN PLAQUE ASSAY HSV/ VER O” value (HSV1 (Patton) [3]) was 35 µg/mL, the “IC50 (µG/ml) viral plaque formation” value (HSV1 (Patton) [3]; HSV1 Patton, VERO, Pre) was 35 µg/mL and the “IC50 µG/mL IN GROWTH […]/ HF” value (RSV (A2)) was 0.1 µg/mL. For the same substance, the “IC50 µG/mL IN GROWTH […]/ VERO” value (RSV (A2)) was 0.1 µg/mL.
